These results are taken from PMC5537602, “TRPA1 channel mediates organophosphate-induced delayed neuropathy” (Cell Discovery, 2017).

The structures appear in SMILES notation.

One experiment deals with T1, TRPM8 (Homo sapiens, UniProt Q7Z2W7).
T1 construct: expressed in transfected cells; host or cells: HEK293
The experiment in a line: Calcium fluorescence signal, HEK293 cells overexpressing TRPM8. Particulars: 10 μM. It is filed as cell-based. On the procedure:
Figure S3. Specificity of malathion for TRPA1 channels. (A-F) Time course of the fluorescence signal induced by malathion (Mala, 10 μM) and the indicated positive agonists (10 μM) in HEK293 cells overexpressing TRPV1 (A), TRPV3 (B), TRPV4 (C), TRPM8 (D), TRPC4 (E) and TRPC5 (F) channels. The fluorescence signals are scaled as F/F0. EC indicates external solution. […]
cells for each tested TRP channel. All bars are presented as the mean ± SEM. […]

In the next experiment the target is mTRPA1 (Mus musculus, UniProt Q8BLA8). The experiment in a line: FDSS Ca2+-influx assay, HEK293 cells stably expressing mTRPA1. It is filed as cell-based. Also on record: expressed in transfected cells. To be noted: HEK293 cells, change in [Ca2+]i; read-out: EC50, activation of mTRPA1. On the procedure: Ca^2+-influx assays were carried out using HEK293 cells stably expressing mTRPA1 channels with an FDSS screening system (Hamamatsu, Japan). Before the start of the assay, HEK293-mTRPA1 cells were plated onto poly-D-Lysine (40 μg ml^−1) coated 96-well black clear bottom plate with the cell density of 300 000 cells per milliliter in DMEM supplemented with 10% (vol/vol) fetal bovine serum, 200 μg ml^−1 Hygromycin B, 15 μg ml^−1 Blasticidin S HCL and 0.3 μg ml^−1 doxycycline, which could induce the expression of mTRPA1. The 96-well plate was then put in sterile incubator overnight. The following day, Ca^2+ influx dye Fluo-4/AM stock was diluted to 2 μM with bath solution, and added (50 μl per well) in place of the culture medium. The plate was then incubated to load the Fluo-4/AM into cells for 60 min at 37 °C in dark environment. During the incubation, we prepared the compound plate (96-well) and the margin of plate was set as blank control due to the fringing effect. At the end of dye loading period, the remnant dye was removed using bath solution to wash the 96-well cell plate twice and then add 80 μl bath solution per well.
Sequence of mTRPA1 (Q8BLA8 whole entry): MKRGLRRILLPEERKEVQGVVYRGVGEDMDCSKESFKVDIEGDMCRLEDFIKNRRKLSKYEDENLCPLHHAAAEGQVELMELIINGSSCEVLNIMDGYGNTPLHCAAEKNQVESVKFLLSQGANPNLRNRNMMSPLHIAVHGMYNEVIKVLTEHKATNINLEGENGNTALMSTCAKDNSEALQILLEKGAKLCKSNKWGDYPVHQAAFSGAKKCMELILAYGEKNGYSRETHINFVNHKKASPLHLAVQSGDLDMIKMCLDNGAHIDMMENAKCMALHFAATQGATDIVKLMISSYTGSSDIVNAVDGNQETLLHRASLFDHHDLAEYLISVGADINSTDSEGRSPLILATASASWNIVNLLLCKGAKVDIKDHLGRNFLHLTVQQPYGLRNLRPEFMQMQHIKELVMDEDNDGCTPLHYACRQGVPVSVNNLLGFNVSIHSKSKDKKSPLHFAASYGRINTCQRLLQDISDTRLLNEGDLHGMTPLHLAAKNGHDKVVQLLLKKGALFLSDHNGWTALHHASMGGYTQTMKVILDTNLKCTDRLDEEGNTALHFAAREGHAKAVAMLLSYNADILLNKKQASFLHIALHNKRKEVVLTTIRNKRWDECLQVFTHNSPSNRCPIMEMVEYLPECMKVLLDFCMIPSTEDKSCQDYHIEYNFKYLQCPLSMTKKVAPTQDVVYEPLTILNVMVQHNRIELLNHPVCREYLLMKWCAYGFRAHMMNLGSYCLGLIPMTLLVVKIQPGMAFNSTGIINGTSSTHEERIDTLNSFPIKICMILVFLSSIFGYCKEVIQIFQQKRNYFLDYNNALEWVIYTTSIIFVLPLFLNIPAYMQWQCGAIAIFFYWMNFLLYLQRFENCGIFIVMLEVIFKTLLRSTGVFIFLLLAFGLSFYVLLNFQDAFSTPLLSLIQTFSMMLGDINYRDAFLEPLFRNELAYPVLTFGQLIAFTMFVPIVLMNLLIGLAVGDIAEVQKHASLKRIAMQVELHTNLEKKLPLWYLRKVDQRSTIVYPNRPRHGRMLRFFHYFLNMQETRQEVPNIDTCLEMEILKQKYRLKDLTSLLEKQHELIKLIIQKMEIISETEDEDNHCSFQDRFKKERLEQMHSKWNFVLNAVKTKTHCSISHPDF

A word on the EC50: it is the concentration needed to bring the measured effect to its halfway point.

T1 sequence (Q7Z2W7 whole entry, species assumed): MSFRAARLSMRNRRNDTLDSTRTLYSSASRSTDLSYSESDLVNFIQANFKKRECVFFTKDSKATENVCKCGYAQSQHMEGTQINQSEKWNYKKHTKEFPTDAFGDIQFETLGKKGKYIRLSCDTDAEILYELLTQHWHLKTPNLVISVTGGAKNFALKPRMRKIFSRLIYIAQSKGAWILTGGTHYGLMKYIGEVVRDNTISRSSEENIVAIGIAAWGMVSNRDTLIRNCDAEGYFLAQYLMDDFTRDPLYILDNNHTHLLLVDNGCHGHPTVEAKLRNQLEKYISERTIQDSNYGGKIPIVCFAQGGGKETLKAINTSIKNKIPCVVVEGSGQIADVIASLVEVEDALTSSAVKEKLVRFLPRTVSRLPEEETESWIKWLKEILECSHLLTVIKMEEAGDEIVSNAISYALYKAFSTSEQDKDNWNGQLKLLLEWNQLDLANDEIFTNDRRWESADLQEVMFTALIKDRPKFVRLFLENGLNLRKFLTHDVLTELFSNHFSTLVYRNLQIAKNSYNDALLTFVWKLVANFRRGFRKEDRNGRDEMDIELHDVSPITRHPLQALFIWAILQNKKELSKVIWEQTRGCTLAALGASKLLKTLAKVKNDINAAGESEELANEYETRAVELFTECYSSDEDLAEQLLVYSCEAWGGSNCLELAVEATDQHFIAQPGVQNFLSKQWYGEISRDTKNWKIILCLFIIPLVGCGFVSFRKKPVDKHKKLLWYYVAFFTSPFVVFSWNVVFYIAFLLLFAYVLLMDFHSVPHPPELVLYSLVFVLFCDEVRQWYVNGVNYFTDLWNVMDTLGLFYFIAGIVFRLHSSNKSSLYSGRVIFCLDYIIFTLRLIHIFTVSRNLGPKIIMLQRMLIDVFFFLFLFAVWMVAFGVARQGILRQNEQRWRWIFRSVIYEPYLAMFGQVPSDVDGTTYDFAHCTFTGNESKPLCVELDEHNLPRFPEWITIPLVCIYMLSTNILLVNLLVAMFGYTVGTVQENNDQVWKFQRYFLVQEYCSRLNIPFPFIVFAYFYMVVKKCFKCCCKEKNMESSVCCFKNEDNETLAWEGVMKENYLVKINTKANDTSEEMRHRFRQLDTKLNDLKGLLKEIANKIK

For `CCOC(=O)CC(SP(=S)(OC)OC)C(=O)OCC` (stereo not drawn) [malathion, S-[1,2-bis (ethoxycarbonyl)ethyl] O, O-dimethyl phosphorodithioate], on TRPM8, the “activation of TRPM8” value is “could not activate”. Further, on mTRPA1, the EC50 is 14.2 ± 1.02 µM.
